Test results taken from patent publication US8168651B2, “Protein kinase modulators” (Cylene Pharmaceuticals, Inc., priority 2008, dated 2012).
Where two headings read alike, the source gives them in different places. Values belong to the molecule of their own block, whether it stands above or below them.

Assays:
[1] = test system: MDAMB231; assay: MDAMB231 IC50; type: cell-based; conditions: Homo sapiens, MDA-MB-231; Table 45
[2] = test system: MV-4-11; assay: Cell proliferation modulatory activity, MV-4-11; type: cell-based; conditions: Homo sapiens, MV4-11; Table 45; read-out: MV-4-11 IC50
[3] = molecular target: recombinant human PIM1 (Homo sapiens (Human), UniProt P11309); assay: PIM-1 kinase activity in cell-free in vitro assay; type: biochemical
Chain of recombinant human PIM1 (P11309 whole entry): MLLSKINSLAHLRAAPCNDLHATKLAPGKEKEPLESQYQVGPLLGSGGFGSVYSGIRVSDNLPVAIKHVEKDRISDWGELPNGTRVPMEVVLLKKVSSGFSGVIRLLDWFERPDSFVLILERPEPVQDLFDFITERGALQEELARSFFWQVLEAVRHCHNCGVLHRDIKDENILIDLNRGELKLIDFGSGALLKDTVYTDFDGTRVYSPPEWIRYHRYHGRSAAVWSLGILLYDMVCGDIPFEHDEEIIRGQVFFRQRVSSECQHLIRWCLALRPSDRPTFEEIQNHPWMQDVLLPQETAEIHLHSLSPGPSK

[4] = test system: K-562; assay: Cell proliferation modulatory activity, K-562; type: cell-based; conditions: Homo sapiens, K562; Table 45; read-out: K-562 IC50
[5] = test system: phosphoBAD ser 112; assay: phosphoBAD ser 112 IC50; type: cell-based; conditions: read-out: phosphoBAD ser 112 IC50; Table 45
[6] = test system: MiaPaca human pancreatic carcinoma cells; assay: Cell-proliferation assay using Alamar Blue dye; type: cell-based; conditions: MIA PaCa-2, Table 45
Procedure: (§1) A representative cell-proliferation assay protocol using Alamar Blue dye (stored at 4° C., use 20 ul per well) is described hereafter.
(§2) • a. Split and trypsinize cells. • b. Count cells using hemocytometer. • c. Plate 4,000-5,000 cells per well in 100 μl of medium and seed into a 96-well plate according to the following plate layout. Add cell culture medium only to wells B10 to B12. Wells B1 to B9 have cells but no compound added.
(§3) • d. Add 100 μl of 2× drug dilution to each well in a concentration shown in the plate layout above. At the same time, add 100 μl of media into the control wells (wells B10 to B12). Total volume is 200 μl/well. • e. Incubate four (4) days at 37° C., 5% CO2 in a humidified incubator. • f. Add 20 μl Alamar Blue reagent to each well. • g. Incubate for four (4) hours at 37° C., 5% CO2 in a humidified incubator. • h. Record fluorescence at an excitation wavelength of 544 nm and emission wavelength of 590 nm using a microplate reader.
(§4) In the assays, cells are cultured with a test compound for approximately four days, the dye then is added to the cells and fluorescence of […] dye is detected after approximately four hours. Different types of cells can be utilized in the assays (e.g., HCT-116 human colorectal carcinoma cells, PC-3 human prostatic cancer cells and MiaPaca human pancreatic carcinoma cells). Anti-proliferative effects of representative compounds are provided hereafter

[7] = molecular target: PIM2 (Homo sapiens (Human), UniProt Q9P1W9); assay: PIM2 IC50; type: biochemical; conditions: Table 45
Chain of PIM2 (Q9P1W9 whole entry): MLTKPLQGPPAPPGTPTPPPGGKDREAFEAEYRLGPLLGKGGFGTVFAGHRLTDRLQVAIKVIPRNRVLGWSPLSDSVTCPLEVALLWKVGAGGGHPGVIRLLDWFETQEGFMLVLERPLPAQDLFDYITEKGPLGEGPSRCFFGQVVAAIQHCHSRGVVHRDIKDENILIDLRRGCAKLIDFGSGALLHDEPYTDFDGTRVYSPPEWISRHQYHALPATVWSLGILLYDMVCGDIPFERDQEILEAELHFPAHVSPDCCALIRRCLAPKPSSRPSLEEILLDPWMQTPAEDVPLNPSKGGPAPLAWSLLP

[8] = test system: MDAMB231; assay: Cell-proliferation assay using Alamar Blue dye; type: cell-based; conditions: Homo sapiens, MDA-MB-231
Procedure: as §1
96-Well Plate Setup and Compound Treatment
as §2, §3, §4

[9] = test system: Jurkat; assay: Cell proliferation modulatory activity, Jurkat; type: cell-based; conditions: Homo sapiens
[10] = test system: K-562; assay: Cell proliferation modulatory activity, K-562; type: cell-based; conditions: Homo sapiens, K562
[11] = test system: MV-4-11; assay: Cell proliferation modulatory activity, MV-4-11; type: cell-based; conditions: Homo sapiens, MV4-11

SMILES: OCCNc1nc2c(-c3nnc[nH]3)cccc2c2cnccc12
IC50 [1]: > 10 µM
IC50 [2]: < 0.1 µM
IC50 ([3]; Table 45): < 0.5 µM
IC50 [4]: > 10 µM
IC50 [5]: < 0.5 µM
IC50 [6]: < 0.5 µM
IC50 [7]: < 1 µM

SMILES: COCCOc1ccc(Nc2nc3c(-c4nnc[nH]4)cccc3c3cnccc23)cc1
IC50 [1]: < 10 µM
IC50 [2]: < 0.1 µM
IC50 ([3]; Table 45): < 0.5 µM
IC50 [4]: > 10 µM
IC50 [5]: < 0.5 µM
IC50 [6]: < 1 µM
IC50 [7]: < 1 µM

SMILES: FC(F)(F)Oc1cccc(Nc2nc3c(-c4nnc[nH]4)cccc3c3cnccc23)c1
IC50 [1]: > 10 µM
IC50 [2]: < 0.5 µM
IC50 ([3]; Table 45): < 0.5 µM
IC50 [4]: < 0.5 µM
IC50 [5]: < 5 µM
IC50 [6]: < 5 µM
IC50 [7]: < 1 µM

SMILES: O=C(O)c1ccc2c(c1)nc(NCc1ccccc1)c1ccncc12 [drawing 1000]
IC50 [8]: 38 µM

SMILES: O=C(O)c1ccc2c(c1)nc(NC1CC1)c1nc(SCc3ccccc3Cl)ncc12 [drawing 1047]
IC50 [8]: > 50 µM

SMILES: CCOc1ncc2c(n1)c(NC1CC1)nc1cc(C(=O)O)ccc12 [drawing 1048]
IC50 [8]: > 50 µM

SMILES: O=C(O)c1ccc2c(c1)nc(NC1CC1)c1nc(NCc3ccccc3)ncc12 [drawing 1050]
IC50 [8]: 23.5 µM

SMILES: O=C(O)c1ccc2c(c1)nc(Nc1cncc(C3CC3)c1)c1ccncc12 [drawing 1052]
IC50 [8]: > 50 µM

SMILES: O=C(O)c1ccc2c(c1)nc(NCc1cccnc1)c1nc(NC3CC3)ncc12 [drawing 1058]
IC50 [8]: > 50 µM

SMILES: O=C(O)c1ccc2c(c1)nc(NCc1ccccc1)c1nc(NC3CC3)ncc12 [drawing 1059]
IC50 [8]: > 50 µM

SMILES: O=C(O)c1ccc2c(c1)nc(N1CCOCC1)c1nc(NC3CC3)ncc12 [drawing 1060]
IC50 [8]: > 50 µM

SMILES: Cc1cc(Nc2ncc3c(n2)c(Nc2ccc(F)c(Cl)c2)nc2cc(C(=O)O)ccc23)[nH]n1 [drawing 1068]
IC50 [8]: > 50 µM

SMILES: O=C(O)c1ccc2c(c1)nc(NC1CC1)c1ccncc12 [drawing 1072]
IC50 [8]: > 50 µM

SMILES: COC(=O)c1ccc2c(c1)nc(NC1CC1)c1nc(SC)ncc12 [drawing 1074]
IC50 [8]: 34.2 µM

SMILES: CN(C)CCNc1nc2cc(C(=O)O)ccc2c2cnc(NC3CC3)nc12 [drawing 1075]
IC50 [8]: > 50 µM

SMILES: Nc1ncc2c(n1)c(NC1CC1)nc1cc(C(=O)O)ccc12 [drawing 1077]
IC50 [8]: > 50 µM

SMILES: C#Cc1cccc(Nc2nc3cc(C(=O)O)ccc3c3cnccc23)c1 [drawing 1555]
IC50 [9]: 2.78 µM
IC50 [10]: 3.33 µM
inhibition at 0.5 µM ([3]; 500 nM compound, cell-free, read-out: PIM-1: % inh 500 nM): 84.1%
IC50 ([3]; cell-free): 0.296 µM
IC50 [11]: > 10 µM

The remaining molecules from weak to strong by IC50 [8], led by results:

IC50 [8]: 11.8 µM
SMILES: C#Cc1cccc(Nc2nc3cc(C(=O)O)ccc3c3cnccc23)c1 [drawing 998]

IC50 [8]: 9.66 µM
SMILES: CC1CCCCN1CCCNc1ncc2c(n1)c(Nc1ccc(F)c(Cl)c1)nc1cc(C(=O)O)ccc12 (centres unmarked) [drawing 1062]

IC50 [8]: 8.38 µM
SMILES: C#Cc1cccc(Nc2nc3cc(C(=O)O)ccc3c3cnc(NCC4CCCO4)nc23)c1 (centres unmarked) [drawing 1038]

IC50 [8]: 7.23 µM
SMILES: COC(=O)c1ccc2c(c1)nc(NC1CC1)c1nc(SCc3ccccc3Cl)ncc12 [drawing 1044]

IC50 [8]: 7.22 µM
SMILES: O=C(O)c1ccc2c(c1)nc(NC1CC1)c1nc(NC3CC3)ncc12 [drawing 1049]

IC50 [8]: 6.88 µM
SMILES: O=C(O)c1ccc2c(c1)nc(NC1CC1)c1nc(Nc3ccccc3)ncc12 [drawing 1051]

IC50 [8]: 4.36 µM
SMILES: CCCNc1ncc2c(n1)c(NC1CC1)nc1cc(C(=O)O)ccc12 [drawing 1078]

IC50 [8]: 2.63 µM
SMILES: C#Cc1cccc(Nc2nc3cc(C(=O)O)ccc3c3cnc(NCC4CC4)nc23)c1 [drawing 1039]
